These results are taken from article PMC3089953 (Bioorganic & medicinal chemistry letters, 2009).

pIC50: −log10 of the molar value. “Also recorded” adds a separate entry of the source.

Series [1] is described as follows: Cytotoxicity in Vero cells. The class given is cell-based, African green monkey. Conditions: African green monkey, Vero cells (kidney epithelial cells).
A short description of series [2]: in vitro. The class given is cell-based. Conditions: human, CEM cells (T-cell-derived cell line).
For series [3], the system named is PBM, CEM, and Vero cells. Put plainly: Cytotoxicity in PBM, CEM and Vero cells. The class given is cell-based.
For series [4], the system named is adenosine deaminase. Put plainly: Conversion by purified adenosine deaminase. The following applies: pH 7.4, 25 °C; for Conversion to AZG by adenosine deaminase: 0.2 units per mL enzyme, 120 min, 50 μM nucleoside.
In series [5] the test system is PBM cells. Description: Intracellular metabolism in PBM cells. Conditions: 50 μM for 4 h at 37 °C, LC/MS/MS. The class given is in vitro ADME, human.
The conditions of series [6]: cited from earlier work.
The test system of series [7] is PBM cells. Put plainly: Cytotoxicity in PBM cells. The class given is cell-based. The following applies: human.
Series [8] relates to HIV-1LAI. Put plainly: Anti-HIV activity against HIV-1LAI in human PBM cells. The class given is cell-based.
Series [9] concerns Vero cells. Description: Cytotoxicity in Vero cells. The class given is cell-based, African green monkey. Conditions: Vero cells.
In series [10] the test system is CEM cells. Put plainly: in vitro. The class given is cell-based. The following applies: CEM cells.

Broadly, the pIC50 is the IC50 on a negative log10 scale, so that one unit is a factor of ten. The low end stands for a high IC50, the high end for a low IC50. `COc1nc(OC)c2ncn([C@H]3C[C@H](N=[N+]=[N-])[C@@H](CO)O3)c2n1` [Compound 39]: the negative logarithm of the IC50 (pIC50) in series [1] and in [2] was below 4.00 each time. Besides, in series [3], the “No cytotoxicity up to” value is above 100 µM.
In the case of `COc1nc(NC2CC2)c2ncn([C@H]3C[C@H](N=[N+]=[N-])[C@@H](CO)O3)c2n1` [Compound 40], the pIC50 in [1] and in series [2] was below 4.00 each time.
As to `[N-]=[N+]=N[C@H]1C[C@H](n2cnc3c(NCCO)nc(N)nc32)O[C@@H]1CO` [Compound 26], the negative logarithm of the IC50 (pIC50) in series [1] and in series [2] was below 4.00 throughout.
`[N-]=[N+]=N[C@H]1C[C@H](n2cnc3c(NC4CC4)nc(Cl)nc32)O[C@@H]1CO` [Compound 33]: the pIC50 in series [1] and in series [2] was below 4.00 throughout.
For `[N-]=[N+]=N[C@H]1C[C@H](n2cnc3c(N)nc(N)nc32)O[C@@H]1CO` [Compound 12], in [4], the “Conversion to AZG by adenosine deaminase” value is given as “substantially or completely converted to AZG; also recorded: substantially converted to AZG”. In addition, the “Conversion to AZG-TP in PBM cells” value in series [5] is reported as “converted to AZG-TP”.
As for `Nc1ncnc2c1ncn2[C@H]1C[C@H](O)[C@@H](CO)O1` [2′-Deoxyadenosine, reference compound], the “Deaminated to 2′-deoxyinosine” value in series [4] (7 min with 0.002 units of enzyme, 50 μM, positive control) is on record as 59%.
Consider `COc1nc(F)nc2c1ncn2[C@H]1C[C@H](N=[N+]=[N-])[C@@H](CO)O1` [Compound 36], for which the pIC50 in series [1] and in series [2] was below 4.00 in each case.
For `Cc1cn([C@H]2C[C@H](N=[N+]=[N-])[C@@H](CO)O2)c(=O)[nH]c1=O` [AZT, 3′-Azido-3′-deoxythymidine], the “Bone marrow toxicity, share of the patients” value in series [6] is recorded as “about 5%”. Also, the pIC50 in [7] was below 4.00.
For `C#CCNc1nc(N)nc2c1ncn2[C@H]1C[C@H](N=[N+]=[N-])[C@@H](CO)O1` [Compound 22], the “Anti-HIV activity” value in series [8] is “significantly less active”. Moreover, the “Cytotoxicity” value in series [3] is “no toxicity”.
With `COc1nc(N)nc2c1ncn2[C@H]1C[C@H](N=[N+]=[N-])[C@@H](CO)O1` [Compound 17], the “Conversion to AZG by adenosine deaminase” value in series [4] is given as “substantially or completely converted to AZG”. In [5], the “Conversion to AZG-TP in PBM cells” value is “converted to AZG-TP” and the “Detection of the nucleoside analog in the triphosphate (TP) form” value (shortened to “Detection of the nucleoside analog”) was “unable to detect”.
Compound `[N-]=[N+]=N[C@H]1C[C@H](n2cnc3c(NC4CC4)nc(N)nc32)O[C@@H]1CO` [Compound 19] gave a negative logarithm of the IC50 (pIC50) in series [1] below 4.00. In addition, the “Conversion to AZG by adenosine deaminase” value in series [4] was “substantially or completely converted to AZG”. For the same compound, the negative-log IC50 (pIC50) in series [2] was below 4.00. In series [5], the “Conversion to AZG-TP in PBM cells” value was “converted to AZG-TP” and the “Detection of the nucleoside analog” value is on record as “unable to detect”.
With `[N-]=[N+]=N[C@H]1C[C@H](n2cnc3c(Cl)nc(F)nc32)O[C@@H]1CO` [Compound 37], in series [3], the “Cytotoxicity” value is given as “increase in cytotoxicity”.
Turning to `[N-]=[N+]=N[C@H]1C[C@H](n2cnc3c(Cl)nc(N)nc32)O[C@@H]1CO` [Compound 10], the “Conversion to AZG by adenosine deaminase” value in series [4] is “substantially or completely converted to AZG”. In addition, in series [5], the “Conversion to AZG-TP in PBM cells” value was “converted to AZG-TP” and the “Detection of the nucleoside analog” value was “unable to detect”.
Regarding `CC(C)(CO)Nc1nc(N)nc2c1ncn2[C@H]1C[C@H](N=[N+]=[N-])[C@@H](CO)O1` [Compound 24], the pIC50 in series [1] and in series [2] was below 4.00 in each case.
With `C=CCN(C)c1nc(N)nc2c1ncn2[C@H]1C[C@H](N=[N+]=[N-])[C@@H](CO)O1` [Compound 21], in series [9], the “Toxicity in Vero cells” value is given as “increased toxicity”. The “Toxicity in CEM cells” value in series [10] is reported as “increased toxicity”.
With `CN(C)c1nc(Cl)nc2c1ncn2[C@H]1C[C@H](N=[N+]=[N-])[C@@H](CO)O1` [Compound 34], the pIC50 in series [1] and in series [2] was below 4.00 in each case.
On to `COc1nc(Cl)nc2c1ncn2[C@H]1C[C@H](N=[N+]=[N-])[C@@H](CO)O1` [Compound 30], for which the pIC50 in series [1] and in [2] was below 4.00 in each case.
For `[N-]=[N+]=N[C@H]1C[C@H](n2cnc3c(N)nc(Cl)nc32)O[C@@H]1CO` [Compound 31], the pIC50 in series [1] and in [2] was below 4.00 each time.
On to `CN(C)c1nc(N)nc2c1ncn2[C@H]1C[C@H](N=[N+]=[N-])[C@@H](CO)O1` [Compound 18], for which, in series [1], the pIC50 is below 4.00. Moreover, the “Conversion to AZG by adenosine deaminase” value in series [4] is “resistant to adenosine deaminase”. Moreover, the pIC50 in series [2] is below 4.00. In series [5], the “Conversion to AZG-TP in PBM cells” value is “converted to AZG-TP” and the “Detection of the nucleoside analog” value is given as “unable to detect”.
Consider `[N-]=[N+]=N[C@H]1C[C@H](n2cnc3c(N)nc(F)nc32)O[C@@H]1CO` [Compound 35], for which the “Cytotoxicity” value in [3] is recorded as “increase in cytotoxicity”.
On to `C=CCNc1nc(N)nc2c1ncn2[C@H]1C[C@H](N=[N+]=[N-])[C@@H](CO)O1` [Compound 20], for which the “Conversion to AZG by adenosine deaminase” value in series [4] is on record as “substantially or completely converted to AZG”. Further, in series [5], the “Conversion to AZG-TP in PBM cells” value was “converted to AZG-TP” and the “Detection of the nucleoside analog” value is on record as “unable to detect”.
For `COc1nc(N)c2ncn([C@H]3C[C@H](N=[N+]=[N-])[C@@H](CO)O3)c2n1` [Compound 38], the pIC50 in [1] and in [2] was below 4.00 each time.
